Measurements from US11578055B2, “Triazacyclododecansulfonamide (“TCD”)-based protein secretion inhibitors” (KEZAR LIFE SCIENCES, priority 2018, dated 2023).

Tested on: B16F10 cells
Assay: Efficacy study: tumor growth and body weight in a B16F10 model
Type: in vivo, C57BL/6 mice
Settings: B16F10 refractory model, once-a-week dosing, compared to anti-PD-1 therapy
Method: Efficacy Study: Effect of Compound A87 on Tumor Growth and Body Weight in a B16F10 Model Comparted to Anti-PD-1 Therapy.
Female C57BL/6 mice (7-8 week old) were injected in the flank subcutaneously with 5×10^6 B16F10 cells in 0.1 ml on Day 0. On Day 3, compound A87 formulated in 10% ETOH/10% Kolliphor EL was administered IV 30 mg/kg QW, IV 10 mg/kg D1D2, or IP 15 mg/kg QOD. Anti-PD1 antibody treatment (RMP1-14 from Bioxcell, 200 μg) was administered i.p. on a QOD×3 dose schedule. Tumor size was monitored with a digital caliper (Fowler) every 2-3 d until reaching a size of 1.5-2.0 cm and expressed as volume (length×width×height). B16F10, a melanoma line, was obtained from ATCC. C57/BL6 mice were purchased from Charles rivers laboratories.

C[C@H]1CN(S(=O)(=O)c2ccc(N(C)C)cc2)CCCN(CC2CCCCC2)CCCN(S(=O)(=O)N2CCc3cc(Cl)ccc3C2)C1 [A87]
tumor growth inhibition: superior efficacy
